This note sets out measurements from a melting point compilation (Tetko et al.; mined from patent text by program, amines drawn as free bases though some values may be those of a salt).

Structures are written as SMILES.

As to `COCCN(C)Cc1ccnc2c(NC(=O)c3c(Cl)cccc3Cl)cccc12`, the melting point (as a rule, the temperature, or range, at which the solid turns liquid) was 128 to 134 °C.

Compound `COc1ccc2[nH]c3c(c2c1)C(C)CNC3=O` (stereo not drawn) had a melting point of 220 °C. The value for `CCCC(c1ccc(C(=O)O)cc1OCc1ccc(Br)cc1)n1ccnc1` (stereo not drawn) was 155 to 158 °C; that for `CN(C(=O)c1ccccc1N(CC(=O)N1CCCC(C)(C)C1)C(=O)CN1C(=O)c2ccccc2C1=O)c1ccccc1` was 180 °C; that for `CSC(C)(C(=O)O)c1cccc(Oc2ccccc2)c1` (stereo not drawn) was 87 to 88 °C. `CS(=O)(=O)OCCN(CCI)c1c(C(=O)NCCOP(=O)(O)O)cc([N+](=O)[O-])cc1[N+](=O)[O-]` returned a melting point of 147 to 150 °C.

The compound `CC(C)C(=O)NCCCC(=O)OC1c2ccccc2C(=O)N1c1ccc2ccc(Cl)nc2n1` (stereo not drawn) registered a melting point of 208 °C. Consider `CC(=O)OCc1ccc(S(=O)(=O)c2ccc(C)nc2Nc2c(C)cc(C)cc2C)cc1`, for which the melting point lay in the range of 132 to 134 °C. With `CCCCN1C(=O)NC(Cc2ccc(C)s2)C1=O` (stereo not drawn), the melting point was determined as 107 °C. As for `Cn1ncc2c1-c1c(Oc3ccc(OCc4ccc(Cl)cc4)cc3)sc(C(N)=O)c1CC2`, the melting point was in the range of 216 to 217 °C. As for `O=c1n(CCCN2CC=C(c3c[nH]c4ccccc34)CC2)nc2ccccn12`, the melting point is 173 °C.

In turn, `Cc1ccc(-n2cc(C)cc2-c2ccc(S(N)(=O)=O)cc2)cc1` came in with a melting point of 144 to 147 °C. The same measure for `O=C(Nc1ccc(-n2nc(C(F)(F)F)cc2C(F)(F)F)cc1)c1ccccc1Cl`: 155 to 157 °C; for `CCCCc1oc2ccc(CO)cc2c1C(=O)c1ccc(O)cc1`: 180 to 182 °C. The compound `CC(C)(Cc1ccccc1)Oc1ccc([N+](=O)[O-])cc1` registered a melting point of 78 to 79 °C. `COC(=O)c1cccc(NC(=O)N(C)C)c1` gave a melting point of 110 °C. Consider `O=C1NCC=NN1c1ccc(C(CCl)c2ccc(Cl)cc2)c(C(F)(F)F)c1` (stereo not drawn), for which the melting point is 157 to 158 °C.

On to `Cc1cc(-c2c(-c3ccc(S(C)(=O)=O)cc3)cnn(CC(F)(F)F)c2=O)ccc1F`, for which the melting point was 88 to 91 °C. Compound `CC(Cc1c[nH]c2ccccc12)C1CCNCC1` (stereo not drawn) showed a melting point of 150 °C.

The compound `CC(C)Nc1nc(N)nc(-c2ccccc2)c1-c1ccc(=O)n(C(C)C)n1` displayed a melting point of 234 to 236 °C. Regarding `CN(C)C=CC(=O)c1ccc(C(F)(F)F)cc1[N+](=O)[O-]`, the melting point was found to be 101 °C. As to `Cc1c2n(c3ccccc13)C(=O)C(Cn1ccnc1C)CC2` (stereo not drawn), the melting point fell in the range of 120 to 121 °C. `CCOC(=O)COc1cc(O)c2c(=O)cc(-c3ccc(OC)c(OCC(=O)N4CCN(Cc5ccc(OC)c(OC)c5OC)CC4)c3)oc2c1` gave a melting point of 105 to 106 °C. The same measure for `CNC(=O)c1c(NC(=O)c2cc(C(F)(F)F)nn2-c2ncccc2Cl)ccc2ncccc12`: 210 to 211 °C; for `COc1ccccc1NC(=O)Nc1nc(NC(C)C)nc(N(CCC(=O)O)Cc2ccc(Cl)c(Cl)c2)n1`: 95 to 101 °C. The same measure for `CC(CN1CCN(c2ccc(C(=O)O)cc2)CC1)Oc1ccccc1` (stereo not drawn): 152 to 154 °C; for `O=[N+]([O-])c1ccc(OC2SCC(O)C(O)C2O)cc1` (stereo not drawn): 130 to 132 °C; for `Cc1c(O)cccc1C(=O)N[C@@H](Cc1ccccc1)[C@H](O)C(=O)N1CSC(C)(C)[C@H]1C(=O)N[C@@H](C)c1ccccc1`: 114 to 115 °C. Regarding `COC(=O)Cc1cc(C(=O)c2ccc(C#Cc3ccccc3)c(N)c2)sc1-c1ccccc1`, the melting point was in the range of 146 to 148 °C.

`Clc1ccc(-c2[nH]nc3c2Cc2ccccc2-3)cc1`: the melting point is 266 to 268 °C. Regarding `CON(Cc1ccc(F)c(C)c1)C(=O)C1=C(O)C(=O)N(C)C1`, the melting point lay within 160 to 164 °C. `N#Cc1ccc(C(=O)c2ccc(S)cc2)cc1` showed a melting point of 156 °C.

`COC(=O)[C@H](Cc1ccccc1)NC(=O)c1ccc([N+](=O)[O-])cc1` gave a melting point of 115 to 116 °C.
